Measured values as given in patent US20130225694A1, “COMPOSITIONS AND METHODS OF INHIBITING RETINAL DEGENERATION” (Oklahoma Medical Research Foundation, priority 2012, published 2013).

Experiments:
rod photoreceptors = assay: Recovery of rod photoresponses after bleaching (dark adaptation ERG) in rats; assay type: in vivo, rat; conditions: 50 mg/kg IP
Experimental: Possible defects in the visual cycle were analyzed by measuring the time course of dark adaptation (recovery of rod photoreceptor sensitivity) following a bleaching light exposure. Rats were fully dark-adapted and injected intraperitoneally with PBN (50 mg/kg) or saline. Full-field scotopic ERGs for both eyes were recorded after 3 hours of PBN injection. A single test flash of 2.3 log cd·s/m^2 was presented to elicit the rod a-wave response under fully dark-adapted conditions. Rats were then exposed to a steady field of log 2.3 cd·s/m^2 for 2 minutes in the Ganzfeld dome to bleach rod photoreceptors. Immediately following the bleaching period (time=0 minutes) and every 10 minutes thereafter (time=10, 20, 30, 40, 50, and 60 minutes), the same test flash of 2.3 log cd·s/m^2 was presented. The a-wave responses at the indicated times after bleaching were normalized to the initial dark-adapted response for each rat.
Effect of PBN on the rate of recovery of rod photoresponses: dark adaptation ERG—The damaging effect of bright light requires a functional rhodopsin photopigment (23). It is well established that PBN protects against light damage (1), and the inventors previously speculated that PBN, as part of its protective mechanism, might down-regulate rhodopsin regeneration rate (2). […]

rhodopsin [1] = assay: Rhodopsin regeneration after topical eye drops in mice; assay type: in vivo, Balb/c mice; conditions: for rhodopsin recovered in 1 h in the dark: 10% PBN eye drops, DA control is 100%
Experimental: Panel A: Application scheme and harvesting of the eye. 3 h group received 2 applications and 6 h group received 3 applications. Panel B: Rhodopsin content was measured as pmole/eye. In 1 h in the dark, untreated eyes (NT-LA 1 h DA, no treatment-light adapted followed by 1 hour dark adaptation) and vehicle-treated eyes recovered 75-80% rhodopsin [dark-adapted (DA) control is 100%], whereas 3 h PBN recovered only 43% and 6 h PBN only 29%. (***P<0.0001 compared to vehicle, n=8; ##p<0.005 between 3 h and 6 h group, n=8).
An eye drop formulation was used with various absorption enhancers for topical application of PBN to mouse eyes. […] One hour dark adaptation followed by light causes 75-80% recovery of bleachable rhodopsin in the Balb/c mice (FIG. 18B, NT-LA 1 h DA). The eye drop without PBN (vehicle) had no effect on rhodopsin regeneration (FIG. 18B, vehicle).
Eye drop formulations were prepared as described in Example 7 and contained 5% or 10% of a PBN derivative. The eye drop formulations were applied to Balb/c mice by the 6 h group application scheme shown in FIG. 18A, in which the eye drops were applied at 6, 3, and 0 h before dark adaptation. The eye drops were applied to completely light-adapted mouse eyes, and the mice were then moved to the dark for 1 h to allow the regeneration of bleachable rhodopsin. One hour dark adaptation followed by light causes […] recovery of bleachable rhodopsin in untreated mice (00, No Treatment). The eye drop without any nitrones (vehicle) had no effect on rhodopsin regeneration (000, vehicle).

rhodopsin [2] = assay: Rhodopsin regeneration after bleach in rats, IP nitrone; assay type: in vivo, rat
Experimental: FIG. 10 graphically illustrates the effects of three PBN analogs of rhodopsin regeneration. Rhodopsin content was measured as nmole/retina following the procedure as in Mandal et al. (J Biol. Chem. 2011. 286 (37):32491-501). After injection with PBN derivatives or vehicles (saline), rats were left in room light for 2 hours (light adapted or LA) and then moved to dark. At 2.5 hours dark adaptation (DA), retinas were harvested. DA-Control, Dark adapted (12 h) control retina without any treatment to show normal rhodopsin content.
Measurement of rhodopsin regeneration—To measure the effect of PBN on the rate of rhodopsin regeneration, dark-adapted rats were injected intraperitoneally with PBN (50 mg/kg) or PBS 0.5 hour prior to a 2 hour bleach in room light (˜400 lux). Immediately following the bleach (time=0 minutes), a group of PBN- and vehicle-treated rats were killed, and retinas were removed and snap frozen. The remaining rats were dark-adapted, and retinas were collected under dim red light at 45, 90, and 180 minutes after the bleach.
Rhodopsin measurements were performed as described previously (2,36) with slight modification. Briefly, under dim red light, each retina was homogenized in 450 μl of buffer containing 10 mM Tris-HCl (pH 7.4), 150 mM NaCl, 1 mM EDTA, 2% (w/v) octylglucoside, and 50 mM hydroxylamine. Homogenates were centrifuged at 16,000 g, and soluble lysates were scanned from 270-800 nm in a spectrophotometer (Ultrospec 3000 UV/Vis Spectrophotometer, GE Healthcare, Piscataway, N.J.). Samples were then bleached under room light for 10 minutes and scanned again. The difference spectra at 500 nm between pre- and post-bleached samples were used to determine rhodopsin content using a molar extinction coefficient of […] (37). The values were normalized to the total lysate volume, and data are presented as rhodopsin content/retina.

CC(C)(C)/[N+]([O-])=C/c1ccccc1 [Compound 1, α-phenyl-N-tert-butyl nitrone] was tested. Which “fully dark-adapted a-wave response” value (rod photoreceptors; 2.3 log cd·s/m^2 test flash before bleach, n=4) did it give?
Its value is −441.5±70.66 μV.

What about the “recovery of the initial fully dark-adapted rod response” value (rod photoreceptors; 40 minutes after the bleaching illumination) of the same compound?
Its value is 25%.

What about the “rhodopsin recovered in 1 h in the dark” value (rhodopsin [1]; 3 h group (2 applications)) of the same compound?
The value was 43%.

And the “rhodopsin recovered in 1 h in the dark” value (rhodopsin [1]; 6 h group (3 applications))?
Its value is 29%.

And the “% of Rhodopsin recovery” value (rhodopsin [1]; 10% in eye drop at 6, 3 and 0 h before dark adaptation, LA + 1 h DA, DA control = 100)?
The value was 48.67%.

And the “inhibition of rhodopsin regeneration as eye drop” value (rhodopsin [1]; eye drop formulation, summary of Table 7)?
Its value is “inhibited rhodopsin regeneration significantly”.

And the “regeneration of bleachable rhodopsin” value (rhodopsin [1]; one drop (~50 μl) containing 10% PBN, 1 h dark)?
Its value is “significantly inhibited”.

What about the “effect on rhodopsin regeneration” value (rhodopsin [2]; 50 mg/kg IP, 2.5 hours in the dark (FIG. 10)) of the same compound?
Its value is “blocked rhodopsin regeneration significantly”.

And the “rhodopsin regenerated after bleach” value (rhodopsin [2]; 50 mg/kg IP, 45 minutes in darkness after 2 h bleach)?
The value was “virtually no rhodopsin was regenerated”.

What about the bleachable rhodopsin recovered (rhodopsin [2]; 50 mg/kg IP, dark adaptation for 3 hours after 2 h bleach) of the same compound?
The bleachable rhodopsin recovered was roughly 30%.

What about the inhibition at 50 mg/kg (rhodopsin [2]; Rattus norvegicus, rats, 50 mg/kg IP, 2 h room light then 2.5 h dark adaptation) of the same compound?
The inhibition at 50 mg/kg was 83%.

What about the “rhodopsin content of rats maintained in darkness” value (rhodopsin [2]; fully dark-adapted rats, mean±SEM) of the same compound?
Its value is 1.38±0.14 nmol/eye.
